Marks after values point to notes of the source that are not given here. Values belong to the compound of their own block, whether it stands above or below them.
Assay: Measurement of logP values by HPLC on reversed phase columns (EEC directive 79/831 Annex V.A8)
Format: physicochemical

logP (pH 2.7): 3.32
SMILES: CCCN(C)C(=S)c1cc(-c2ncnc(Nc3cccc(F)c3)n2)ccn1 [Example B13]

logP (pH 2.7): 2.94
SMILES: COCC(C1CC1)N(C)C(=O)c1cc(-c2ncnc(Nc3cccc(OC(F)F)c3)n2)ccn1 (stereo not drawn) [Example B303]

logP (pH 2.7): 2.73
SMILES: CC(C)CN(C)C(=O)c1cc(-c2ncnc(Nc3cccc(C#N)c3)n2)ccn1 [Example B295]

logP (pH 2.7): 3.79
SMILES: CCC(=O)c1cc(-c2ncnc(Nc3cccc(Cl)c3)n2)ccn1 [Example B45]

logP (pH 2.7): 3.51
SMILES: CN(C(=O)c1cc(-c2ncnc(Nc3cccc(Cl)c3)n2)ccn1)C1CCCC1 [Example B149]

logP (pH 2.7): 3.42
SMILES: CN(CC1CC1)C(=S)c1cc(-c2ncnc(Nc3cccc(F)c3)n2)ccn1 [Example B12]

logP (pH 2.7): 2.86
SMILES: CCCN(C)C(=O)c1cc(-c2ncnc(Nc3cccc(OC(F)F)c3)n2)ccn1 [Example B299]

logP (pH 2.7): 3.33
SMILES: CN(CC1CC1)C(=O)c1cc(-c2ncnc(Nc3cccc(C(F)(F)F)c3)n2)ccn1 [Example B357]

logP (pH 2.7): 3.92
SMILES: COCCN(C)C(=O)c1cc(-c2ncnc(Nc3ccc(F)cc3)n2)ccn1 [Example B22]

logP (pH 2.7): 2.96
SMILES: CSc1cccc(Nc2ncnc(-c3ccnc(C(=O)N(C)CC(F)F)c3)n2)c1 [Example B372]

logP (pH 2.7): 4.34
SMILES: CCCCCCN(C)C(=O)c1cc(-c2ncnc(Nc3cccc(Cl)c3)n2)ccn1 [Example B128]

The remaining lines, values behind:

SMILES: CCCN(CCC)C(=O)c1cc(-c2ccnc(Nc3ccnc(Cl)c3)n2)ccn1 [Example A11]
logP (pH 7.8): 2.88^[c]

SMILES: CCN(OC)C(=O)c1cc(-c2ncnc(Nc3ccsc3)n2)ccn1 [Example C32]
logP (pH 7.8): 2.33^[c]

SMILES: C=CCON=C(CC)c1cc(-c2ncnc(Nc3cccc(Cl)c3)n2)ccn1 (mixture of isomers) [Example B41]
logP (pH 2.7): 5.14

SMILES: O=C(c1cc(-c2ccnc(Nc3ccnc(Cl)c3)n2)ccn1)N1CCCC(CO)C1 (stereo not drawn) [Example A9]
logP (pH 2.7): 1.69

SMILES: O=C(NC1CCCCC1)c1cc(-c2ncnc(Nc3cccc(Cl)c3)n2)ccn1 [B56]
logP (pH 2.7): 4.46

SMILES: CCN(CC(C)(C)O)C(=O)c1cc(-c2ncnc(Nc3cccc(Cl)c3)n2)ccn1 [Example B166]
logP (pH 2.7): 2.66

SMILES: CCCN(CC)C(=O)c1cc(-c2ncnc(Nc3cccc(Cl)c3)n2)ccn1 [Example B125]
logP (pH 2.7): 3.46

SMILES: CCCC#CCON=C(C)c1cc(-c2ncnc(Nc3cccc(Cl)c3)n2)ccn1 (mixture of isomers) [B35]
logP (pH 2.7): 5.16

SMILES: COC(=O)c1cc(-c2ncnc(Nc3ccc(C)c(Cl)c3)n2)ccn1 [B419]
logP (pH 2.7): 3.17

SMILES: CCN(C)C(=S)c1cc(-c2ncnc(Nc3cccc(F)c3)n2)ccn1 [Example B10]
logP (pH 2.7): 2.94

SMILES: CCN(C)C(=S)c1cc(-c2ncnc(Nc3ccsc3)n2)ccn1 [Example C23]
logP (pH 2.7): 2.68

SMILES: CCON(C)C(=O)c1cc(-c2ncnc(Nc3ccsc3)n2)ccn1 [Example C33]
logP (pH 2.7): 2.26

SMILES: CC(C)CN(C)C(=O)c1cc(-c2ncnc(Nc3ccncc3)n2)ccn1 [Example C18]
logP (pH 2.7): 1.19

SMILES: CCC(=NOCc1ccccc1)c1cc(-c2ncnc(Nc3cccc(Cl)c3)n2)ccn1 (mixture of isomers) [B72]
logP (pH 2.7): 5.65

SMILES: CCCC(C)NC(=O)c1cc(-c2ncnc(Nc3ccc(F)c(Cl)c3)n2)ccn1 (stereo not drawn) [B200]
logP (pH 2.7): 4.64

SMILES: CCN(C)C(=O)c1cc(-c2ncnc(Nc3ccc(F)c(C(F)F)c3)n2)ccn1 [Example B394]
logP (pH 2.7): 2.55

SMILES: CC(C)CN(C)C(=O)c1cc(-c2ncnc(Nc3cccc(C(F)F)c3)n2)ccn1 [Example B289]
logP (pH 2.7): 3.04

SMILES: CC(C)CN(C)C(=O)c1cc(-c2ncnc(Nc3ccsc3)n2)ccn1 [Example C16]
logP (pH 2.7): 2.63

SMILES: COc1ccc(Nc2ncnc(-c3ccnc(C(=O)N4CCCC4)c3)n2)cn1 [Example C1]
logP (pH 7.8): 1.99^[c]

SMILES: CCC(=NOCC1CC1)c1cc(-c2ncnc(Nc3cccc(Cl)c3)n2)ccn1 (mixture of isomers) [Example B54]
logP (pH 2.7): 5.49

SMILES: CC1CCCN(C(=O)c2cc(-c3ncnc(Nc4cccc(Cl)c4)n3)ccn2)C1C (stereo not drawn) [Example B137]
logP (pH 2.7): 3.78

SMILES: O=C(c1cc(Nc2nccc(-c3ccnc(C(=O)N4CC=CCC4)c3)n2)ccn1)N1CC=CCC1 [Example A3]
logP (pH 2.7): 1.6
